Where a name gives a salt, the structure may show the parent alone.
Key:
[1] = system: L. donovani (MHOM/IN/00/DEVI) promastigotes; assay: In vitro antileishmanial activity on promastigotes, MTT assay; assay type: cell-based; conditions: Leishmania donovani, 72 h incubation, mean +/- SD of three independent experiments
Procedure: L. donovani (MHOM/IN/00/DEVI) used in this study was provided by the CNR Leishmania (Montpellier, France). The effects of the tested compounds on the growth of L. donovani (MHOM/IN/00/DEVI) promastigotes were assessed by MTT assay. Briefly, promastigotes in log-phase in Schneider’s medium supplemented with 20% fetal calf serum (FCS), 2 mM L-glutamine and antibiotics (100 U/mL penicillin and 100 µg/mL streptomycin), were incubated at an average density of 10^6 parasites/mL in sterile 96-well plates with various concentrations of compounds previously dissolved in DMSO (final concentration less than 0.5% v/v), in duplicate. […] Duplicate assays were performed for each sample. After the 72 h incubation period at 27 °C, parasite metabolic activity was determined. Each well was microscopically examined for precipitate formation. To each well was added 10 µL of 10 mg/mL MTT [3-(4,5-dimethylthiazol-2-yl)-2,5-diphenyltetrazolium bromide)] solution followed by 4 h incubation time. The enzyme reaction was stopped by addition of 100 µL of 50% isopropanol/10% sodium dodecyl sulfate. Plates were vigorously shaken (300 rpm) for 10 min, and the absorbance was measured at 570 nm with 630 nm as reference wavelength in a BIOTEK ELx808 Absorbance Microplate Reader (Agilent Technologies, Les Ulis, France). […] IC50 of the parasite’s growth (half maximal inhibitory concentration or IC50 values) were then calculated from the obtained experimental results using a previously described regression program. IC50 values were calculated from three independent experiments.

[2] = system: Plasmodium falciparum CQ-sensitive strain 3D7; assay: In vitro antiplasmodial activity, SYBR Green I fluorescence-based method, strain 3D7; assay type: cell-based; conditions: CQ-sensitive strain 3D7, 48 h incubation, mean of three independent experiments, read-out: P. falciparum Strains IC50 Values 3D7
Procedure: (§1) The in vitro antiplasmodial activities were tested over concentrations ranging from 39 nM to 40 µM against culture-adapted Plasmodium falciparum reference strains 3D7 and W2. […] These two strains are obtained from the collection of the National Museum of Natural History (Paris, France). The parasites were cultivated in RPMI medium (Sigma Aldrich, Lyon, France) supplemented with 0.5% Albumax I (Life Technologies Corporation, Paisley, UK), hypoxanthine (Sigma Aldrich), and gentamicin (Sigma Aldrich) with human erythrocytes and were incubated at 37 °C in a candle jar, as described previously. The P. falciparum drug susceptibility test was carried out in 96-well flat bottom sterile plates in a final volume of 250 µL. After 48 h incubation period with the drugs, quantities of DNA in treated and control cultures of parasites in human erythrocytes were quantified using the SYBR Green I (Sigma Aldrich) fluorescence-based method. Briefly, after incubation, plates were frozen at -20 °C until use. Plates were then thawed for 2 h at room temperature, and 100 µL of each homogenized culture was transferred to a well of a 96-well flat bottom sterile black plate (Nunc, Inc.) that contained 100 µL of the SYBR Green I lysis buffer (2xSYBR Green, 20 mM Tris base pH 7.5, 5 mM EDTA, 0.008% w/v saponin, 0.08% w/v Triton X-100). […] Plates were incubated for 1 h at room temperature and then read on a fluorescence plate reader (Tecan, Austria) using excitation and emission wavelengths of 485 and 535 nm, respectively.

[3] = system: Plasmodium telomeric sequence FPf1T G-quadruplex; assay: FRET melting assay, FPf1T; assay type: binding, Plasmodium falciparum; conditions: compound 2 μM, oligonucleotide 0.2 μM, K+ conditions
Procedure: (§2) These were performed with dual-labeled oligonucleotides mimicking the Plasmodium telomeric sequences FPf1T [FAM-5′(GGGTTTA)3-GGG3′-TAMRA] and FPf8T [FAM-5′(GGGTTCA)3GGG3′-TAMRA], the Trypanosoma 9 and 11 chromosomic sequence FTrypBT (also named FEBR1T) [FAM-5′[…]3′-TAMRA], the human telomeric sequence F21T [FAM-(GGGTTA)3-GGG3′-TAMRA] and the human duplex sequence FdxT [FAM5′-[…]-hexaethyleneglycol-[…]3′-TAMRA] [27, 31, 47]. The oligonucleotides were pre-folded in 10 mM lithium cacodylate buffer (pH 7.2), with 10 mM KCl and 90 mM LiCl (K^+ condition). The FAM emissions were recorded at 516 nm using a 492-nm excitation wavelength in the absence and presence of a single compound as a function of temperature (25 to 95 °C) in 96-well microplates using a Stratagene MX3000P real-time PCR device at a rate of 1 °C∙min-1. Data were normalized between 0 and 1, and the required temperature for half-denaturation of oligonucleotides corresponding to the emission value of 0.5 was taken as the Tm. Each experiment was performed in duplicate with 0.2 µM of labeled oligonucleotide and 2 µM of compound under K^+ condition. For each compound, three independent experiments were carried out.

[4] = system: Trypanosoma 9 and 11 chromosomic sequence FTrypBT (FEBR1T) G-quadruplex; assay: FRET melting assay, FtrypBT; assay type: binding, Trypanosoma brucei brucei; conditions: compound 2 μM, oligonucleotide 0.2 μM, K+ conditions
Procedure: as §2

[5] = system: T. brucei brucei AnTat 1.9; assay: In vitro antitrypanosomal activity, Alamar Blue assay; assay type: cell-based, Trypanosoma brucei brucei; conditions: Trypanosoma brucei, slender bloodstream trypomastigotes, AnTat 1.9 strain; mean +/- SD of three independent experiments; read-out: Trypanosoma brucei brucei IC50 Values Trypanos Antat 1.9
Procedure: The effects of the tested compounds on the growth of T. brucei brucei were assessed using an Alamar Blue® assay described by Räz et al. T. brucei brucei AnTat 1.9 ([…], Belgium) was cultured in MEM with Earle's salts, supplemented according to the protocol of Baltz et al. […] All doses were tested in duplicate. Appropriate controls treated with solvents 0.9% NaCl or DMSO or with suramin, pentamidine, eflornithine, and fexinidazole (reference drugs purchased from Sigma Aldrich and Fluorochem, UK) were added to each set of experiments. After 69 h incubation period at 37 °C, 10 μL of the viability marker Alamar Blue (Fisher) was added to each well, and the plates were incubated for 5 h. The plates were read in a PerkinElmer ENSPIRE (Germany) microplate reader using an excitation wavelength of 530 nm and an emission wavelength of 590 nm.

[6] = system: human telomeric sequence F21T G-quadruplex; assay: FRET melting assay, F21T; assay type: binding; conditions: compound 2 μM, oligonucleotide 0.2 μM, K+ conditions
Procedure: as §2

[7] = system: human duplex sequence FdxT; assay: FRET melting assay, duplex control FdxT; assay type: binding; conditions: compound 2 μM, oligonucleotide 0.2 μM, K+ conditions
Procedure: as §2

[8] = system: Plasmodium falciparum CQ-resistant strain W2; assay: In vitro antiplasmodial activity, SYBR Green I fluorescence-based method, strain W2; assay type: cell-based; conditions: CQ-resistant strain W2, 48 h incubation, mean of three independent experiments, read-out: P. falciparum Strains IC50 Values W2
Procedure: as §1

[9] = system: Plasmodium telomeric sequence FPf8T G-quadruplex; assay: FRET melting assay, FPf8T; assay type: binding, Plasmodium falciparum; conditions: compound 2 μM, oligonucleotide 0.2 μM, K+ conditions
Procedure: as §2

With `CN(C)CCNCc1cc(-c2ccccc2)c2ccc3c(-c4ccccc4)cc(CNCCN(C)C)nc3c2n1` (as salt: ammonium) [Compound 1a, 2,9-Bis[(2-dimethylaminoethyl)aminomethyl]-4,7-diphenyl-1,10-phenanthroline] as the compound, how does the melting point read?
Its melting point is 179 to 181 °C.

For `CN(C)CCCNCc1cc(-c2ccccc2)c2ccc3c(-c4ccccc4)cc(CNCCCN(C)C)nc3c2n1` (as salt: ammonium) [Compound 1b, 2,9-Bis[(3-dimethylaminopropyl)aminomethyl]-4,7-diphenyl-1,10-phenanthroline], which melting point is on record?
Its melting point is 161 to 163 °C.

For `CN(C)CCCCNCc1cc(-c2ccccc2)c2ccc3c(-c4ccccc4)cc(CNCCCCN(C)C)nc3c2n1` (as salt: ammonium) [Compound 1c, 2,9-Bis[(4-dimethylaminobutyl)aminomethyl]-4,7-diphenyl-1,10-phenanthroline], which melting point is on record?
Its melting point is 111 to 113 °C.

Which melting point does the source give for `CN(C)CCCCCNCc1cc(-c2ccccc2)c2ccc3c(-c4ccccc4)cc(CNCCCCCN(C)C)nc3c2n1` (as salt: ammonium) [Compound 1d, 2,9-Bis[(5-dimethylaminopentyl)aminomethyl]-4,7-diphenyl-1,10-phenanthroline] here?
Its melting point is 119 to 121 °C.

With `CN1CCN(CCNCc2cc(-c3ccccc3)c3ccc4c(-c5ccccc5)cc(CNCCN5CCN(C)CC5)nc4c3n2)CC1` (as salt: ammonium) [Compound 1e] as the compound, how does the melting point read?
The melting point was 185 to 187 °C.

For `CN1CCN(CCCNCc2cc(-c3ccccc3)c3ccc4c(-c5ccccc5)cc(CNCCCN5CCN(C)CC5)nc4c3n2)CC1` (as salt: ammonium) [Compound 1f], which melting point is on record?
The melting point was 205 to 207 °C.

For `CN1CCN(CCCCNCc2cc(-c3ccccc3)c3ccc4c(-c5ccccc5)cc(CNCCCCN5CCN(C)CC5)nc4c3n2)CC1` (as salt: ammonium) [Compound 1g], which melting point is on record?
Its melting point is 207 to 209 °C.

With `c1ccc(-c2cc(CNCCN3CCOCC3)nc3c2ccc2c(-c4ccccc4)cc(CNCCN4CCOCC4)nc23)cc1` (as salt: ammonium) [Compound 1h] as the compound, how does the melting point read?
The melting point was 194 to 196 °C.

With `c1ccc(-c2cc(CNCCCN3CCOCC3)nc3c2ccc2c(-c4ccccc4)cc(CNCCCN4CCOCC4)nc23)cc1` (as salt: ammonium) [Compound 1i] as the compound, how does the melting point read?
Its melting point is 174 to 176 °C.

For `c1ccc(-c2cc(CNCCN3CCCCC3)nc3c2ccc2c(-c4ccccc4)cc(CNCCN4CCCCC4)nc23)cc1` (as salt: ammonium) [Compound 1j], which melting point is on record?
The melting point was 192 to 194 °C.

For `c1ccc(-c2cc(CNCCCN3CCCCC3)nc3c2ccc2c(-c4ccccc4)cc(CNCCCN4CCCCC4)nc23)cc1` (as salt: ammonium) [Compound 1k], which melting point is on record?
Its melting point is 141 to 143 °C.

For `c1ccc(-c2cc(CNCCCN3CCCC3)nc3c2ccc2c(-c4ccccc4)cc(CNCCCN4CCCC4)nc23)cc1` (as salt: ammonium) [Compound 1l], which melting point is on record?
Its melting point is 145 to 147 °C.

Which melting point does the source give for `c1ccc(-c2cc(CNCCc3ccccn3)nc3c2ccc2c(-c4ccccc4)cc(CNCCc4ccccn4)nc23)cc1` (as salt: ammonium) [Compound 1m] here?
Its melting point is 165 to 167 °C.

For `c1ccc(-c2cc(CNCCc3cccnc3)nc3c2ccc2c(-c4ccccc4)cc(CNCCc4cccnc4)nc23)cc1` (as salt: ammonium) [Compound 1n], which melting point is on record?
Its melting point is 164 to 166 °C.

Which melting point does the source give for `c1ccc(-c2cc(CNCCc3ccncc3)nc3c2ccc2c(-c4ccccc4)cc(CNCCc4ccncc4)nc23)cc1` (as salt: ammonium) [Compound 1o] here?
Its melting point is 147 to 149 °C.

Which melting point does the source give for `c1ccc(-c2cc(CNCCCc3ccncc3)nc3c2ccc2c(-c4ccccc4)cc(CNCCCc4ccncc4)nc23)cc1` (as salt: ammonium) [Compound 1p] here?
The melting point was 99 to 101 °C.

With `C[C@@H]1[C@H](O)[C@@H](C)/C=C/C=C/C=C/C=C/C=C/C=C/C=C/[C@H](O[C@@H]2O[C@H](C)[C@@H](O)[C@H](N)[C@@H]2O)C[C@@H]2O[C@](O)(C[C@@H](O)C[C@@H](O)[C@H](O)CC[C@@H](O)C[C@@H](O)CC(=O)O[C@H]1C)C[C@H](O)[C@H]2C(=O)O` [Amphotericin B, reference compound] as the compound, how does the IC50 [1] read?
Its IC50 is 100 ± 40 nM.

Which IC50 [2] does the source give for `CN(C)CCNCc1cc(-c2ccccc2)c2ccc3c(-c4ccccc4)cc(CNCCN(C)C)nc3c2n1` [Compound 1a, 2,9-Bis[(2-dimethylaminoethyl)aminomethyl]-4,7-diphenyl-1,10-phenanthroline] here?
The IC50 was 1800 ± 670 nM.

What about the “ΔTm FPf1T” value [3] of the same compound?
Its value is 1.8 °C.

What about the “ΔTm FtrypBT” value [4] of the same compound?
Its value is 1.9 °C.

And the IC50 [5]?
The IC50 was 670 ± 30 nM.

What about the IC50 [1] of the same compound?
The IC50 was > 12500 nM.

What about the “ΔTm F21T” value [6] of the same compound?
The value was 1.8 °C.

What about the “ΔTm FdxT” value [7] of the same compound?
Its value is −0.3 °C.

What about the IC50 [8] of the same compound?
The IC50 was 1000 ± 340 nM.

And the “ΔTm FPf8T” value [9]?
The value was 1.6 °C.

With `CSc1ccc(OCc2ncc([N+](=O)[O-])n2C)cc1` [Fexinidazole, reference compound] as the compound, how does the IC50 [5] read?
Its IC50 is 590 ± 39 nM.

With `Cc1ccc(C(=O)Nc2ccc(S(=O)(=O)O)c3cc(S(=O)(=O)O)cc(S(=O)(=O)O)c23)cc1NC(=O)c1cccc(NC(=O)Nc2cccc(C(=O)Nc3cc(C(=O)Nc4ccc(S(=O)(=O)O)c5cc(S(=O)(=O)O)cc(S(=O)(=O)O)c45)ccc3C)c2)c1` [Suramine, reference compound] as the compound, how does the IC50 [5] read?
The IC50 was 30 ± 3 nM.

— paper PMC9699089 (Pathogens, 2022)
